From patent publication US8575116B1, “Polyacetylenic compounds for protecting against pancreatic islet atrophy” (Academia Sinica, priority 2010, dated 2013)

Tests used:
adiponectin = experiment: Real-time RT-PCR of adiponectin mRNA relative to GAPDH in 3T3-L1 cells; assay type: cell-based, mouse; details: mouse, 8 days, 1 μM
[1] = tested on: adipocyte protein 2 (aP2); experiment: Real-time RT-PCR of aP2 mRNA relative to GAPDH in 3T3-L1 cells; assay type: cell-based, mouse; details: mouse, 8 days, 1 μM
β-cell line = experiment: Insulin secretion in β-cell line (unpublished data); assay type: cell-based
STZ-treated C57BL mice [2] = experiment: Blood glucose in STZ-treated (β-cell-depleted) C57BL mice; assay type: in vivo, mouse; details: cytopiloyne oral 0.1, 0.5 and 2.5 mgkg^−1; insulin i.p. 2.5 IUkg^−1
Description: FIGS. 3A-C show cytopiloyne-mediated insulin release depends on pancreatic islet cells. (A) Rat pancreatic islet cells were incubated with glucose-free KRB buffer containing vehicle or cytopiloyne at 1.5, 3, 7, 14, 28 and 42 μM (FIG. 3A-i). Similarly, rat pancreatic islet cells were incubated with KRB buffer containing vehicle, glimepiride (GLM, 10 μM) or cytopiloyne at 1.5, 3, 7, 14, 28 and 42 μM in the presence of 3.3 mM glucose (LG, FIG. 3A-ii) or 16.7 mM glucose (HG, FIG. 3A-iii). The insulin levels were determined using an insulin ELISA kit. The data presented as mean±SEM of 3 independent experiments. (B) Fed C57BL mice, which had already received an injection of STZ, were administered with an oral dose of vehicle, cytopiloyne (CP, 0.1, 0.5 and 2.5 mgkg^−1), and an intraperitoneal injection of insulin (Ins, 2.5 IUkg^−1). Blood sugar levels in the STZ-treated mice were determined using a glucometer. […] Blood sugar levels in the STZ-treated mice were determined using a glucometer. All the results from 3 independent experiments are expressed as mean±SEM, and P<0.05 was considered to be statistically significant (*). […]
To deplete pancreatic β-cells in mice, 6-week-old C57BL females (NLAC, Taipei, Taiwan) were intraperitoneally injected with STZ at 200 mgkg^−1. […] Blood glucose levels were monitored for 4 h. […] Blood glucose levels in the mice were monitored from 0 to 4 h after insulin injection.

HIT-T15 cells = experiment: Insulin secretion of β-cell line with PMA, GF109203X and cytopiloyne (ELISA); assay type: cell-based, rat; details: FIG. 6A
[3] = tested on: human insulin promoter in HIT-T15 β-cells; experiment: Insulin promoter (phINS-Luc) dual luciferase assay in HIT-T15 β-cells; assay type: cell-based, rat; details: FIG. 6C
Description: FIGS. 4A-C show an increase in insulin mRNA and protein content by cytopiloyne in pancreatic islet cells. (A) HIT-T15 β-cells transfected with phINS-Luc and pRL-TK plasmids were incubated with vehicle (NS), glimepiride (GLM, 10 μM), high glucose (HG, 16.7 mM) or cytopiloyne at 7, 14 or 28 μM. Ten μg of cell lysates from these cells underwent to dual luciferase assays. […] (C) Rat pancreatic islet cells were treated with vehicle, glucose (3.3 mM (LG) or 16.7 mM (HG)) or cytopiloyne (CP, 7, 14 and 28 μM) in the presence of brefeldin A for 24 h. After anti-insulin antibody staining, these cells underwent FACS analysis. The percentage of insulin-positive β-cells is shown. All the results from 3 independent experiments are expressed as mean±SEM, and P<0.05 was considered to be statistically significant (*).
(A) RIN-M5F cells were grown in medium with 16.7 mM (HG) or 3.3 mM glucose (LG) in the presence of PMA. GF and cytopiloyne. The insulin level of the supernatants was determined using an ELISA kit. (B) RIN-M5F cells were transfected with 5 μg of dominant-negative PKCα or control plasmid grown in medium with 16.7 mM (HG) or 3.3 mM glucose (LG) in the presence of PMA (1 μM), GF109203X (3 μM) or cytopiloyne. The insulin level of the supernatants was determined using an ELISA kit. (C) HIT-T15 cells were transfected with phINS-Luc and pRL-TK plasmids. The cells were grown in medium with 16.7 mM (HG) or 3.3 mM glucose (LG) in the absence or presence of PMA, GF109203X and cytopiloyne. The cell lysates were subjected to dual luciferase assays. (D) HIT-T15 cells were transfected with vehicle or dominant-negative PKCα plasmid together with phINS-Luc and pRL-TK plasmids. The cells were grown in medium with 16.7 mM (HG) or 3.3 mM glucose (LG) in the absence or presence of PMA and cytopiloyne. The cell lysates were subjected to dual luciferase assays.
Plasmids phINS-Luc and pRL-TK contain a human insulin promoter (2347 bp) from phINS-DCR3 vector linked to a firefly luciferase gene and the thymidine kinase promoter linked to Renilla luciferase reporter gene, respectively. Dominant-negative PKCα, phINS-Luc and/or pRL-TK were transfected into HIT-T15 cells with lipofectamine or electroporation.

STZ-treated C57BL mice [4] = experiment: Insulin sensitizer test: oral dose before insulin injection in STZ-treated C57BL mice; assay type: in vivo, mouse; details: cytopiloyne 0.5 and 2.5, glimepiride 2.5, metformin 60 mgkg^−1 oral; insulin 2.5 IUkg^−1
Description: FIGS. 3A-C show cytopiloyne-mediated insulin release depends on pancreatic islet cells. (A) Rat pancreatic islet cells were incubated with glucose-free KRB buffer containing vehicle or cytopiloyne at 1.5, 3, 7, 14, 28 and 42 μM (FIG. 3A-i). Similarly, rat pancreatic islet cells were incubated with KRB buffer containing vehicle, glimepiride (GLM, 10 μM) or cytopiloyne at 1.5, 3, 7, 14, 28 and 42 μM in the presence of 3.3 mM glucose (LG, FIG. 3A-ii) or 16.7 mM glucose (HG, FIG. 3A-iii). The insulin levels were determined using an insulin ELISA kit. The data presented as mean±SEM of 3 independent experiments. (B) Fed C57BL mice, which had already received an injection of STZ, were administered with an oral dose of vehicle, cytopiloyne (CP, 0.1, 0.5 and 2.5 mgkg^−1), and an intraperitoneal injection of insulin (Ins, 2.5 IUkg^−1). Blood sugar levels in the STZ-treated mice were determined using a glucometer. (C) C57BL mice, which had already received STZ, were orally administered with a single dose of vehicle, cytopiloyne (CP, 0.5 and 2.5 mgkg^−1), glimepiride (GLM, 2.5 mgkg^−1), or metformin (60 mgkg^−1), followed by an intraperitoneal injection with insulin (Ins). Blood sugar levels in the STZ-treated mice were determined using a glucometer. All the results from 3 independent experiments are expressed as mean±SEM, and P<0.05 was considered to be statistically significant (*). The number of mice (n) is indicated in parentheses.
To deplete pancreatic β-cells in mice, 6-week-old C57BL females (NLAC, Taipei, Taiwan) were intraperitoneally injected with STZ at 200 mgkg^−1. STZ-treated females with postprandial blood sugar over 500 mgdl^−1 were grouped. […] Blood glucose levels were monitored for 4 h. To distinguish sensitizer activity from releaser activity of cytopiloyne, STZ-treated C57BL mice were tube-fed with vehicle, glimepiride (2.5 mgkg^−1), metformin (60 mgkg^−1) or cytopiloyne (0.5 and 2.5 mgkg^−1) 1 h before insulin injection (2.5 IUkg^−1). Blood glucose levels in the mice were monitored from 0 to 4 h after insulin injection.

PKCα = PKCα translocation and phosphorylation (Western blot) in RIN-m5F cells; assay type: cell-based, rat; details: PMA 1 μM, glucose 16.7 mM
Description: (§1) FIGS. 5A-D show the effects of cytopiloyne on calcium mobilization, DAG generation and PKCa activation. (A) After Fura 2-AM loading, RIN-m5F cells were stimulated with 16.7 mM glucose (HG) and cytopiloyne at 7, 14 and 28 μM. Level of intracellular calcium, as shown by the 340/380 nm ratio, was detected using a fluorescence spectrophotometer. (B) RIN-m5F cells were pulsed with ^3H-myristic acid (5 Cim1^−1) for 16 hours. After washing, the cells were stimulated with glucose, cytopiloyne, PMA and glimepiride. Total lipids were separated on a silica thin layer plate. DAG and cholesterol were visualized with iodine vapor and identified by their standards. (C) RIN-m5F cells were incubated with vehicle (Mock), cytopiloyne (CP, 3, 7 and 14 μM), PMA (1 μM) and 16.7 mM (HG). Membrane or cytosolic proteins were subjected to Western blot with anti-PKCα and anti-Actin antibodies. (D) RIN-m5F cells were incubated with vehicle (Mock), cytopiloyne (CP 7 μM) and PMA (1 μM). After lysis, total lystaes were subjected to Western blot with anti-PKCα, anti-phospho-PKCα and anti-Actin antibodies.

RIN-m5F cells = experiment: DAG and cholesterol generation (3H-myristic acid, TLC) in RIN-m5F cells; assay type: cell-based, rat; details: versus vehicle control, glucose 16.7 mM
Description: as §1
RIN-m5F cells were incubated with ^3H-myristic acid ([…]) for 16 hours. After washing, the cells were treated with glucose, cytopiloyne, PMA and glimepiride. Total lipids were extracted as previously described. Radioactive DAG was separated on a silica thin layer plate with the first developer of ethylacetate: acetic acid: triethylpentane (9:2:5) and the second developer of hexane: diethylether: methanol: acetic acid (90:20:3:2). The spot of DAG was visualized with iodine vapor and identified by DAG standard.

Compound: CN(CCOc1ccc(CC2SC(=O)NC2=O)cc1)c1ccccn1 (stereo not shown) [rosiglitazone]
- adiponectin expression level, times control levels (adiponectin): 21 times
- aP2 expression, times of the control [1]: 11 times

Compound: cytopiloyne aglycone
- induction of insulin secretion relative to cytopiloyne (β-cell line): less effective than cytopiloyne in inducing insulin secretion
- insulin secretion in β-cell line (β-cell line): did stimulate insulin secretion in β-cell line to some extent

Compound: insulin: Insulin purchased from Novo Nordisk, injected intraperitoneally
- reduction of hyperglycemia / blood glucose in β-cell-depleted mice (STZ-treated C57BL mice [2]): still diminished blood glucose levels

Compound: CN(C)CCCn1cc(C2=C(c3c[nH]c4ccccc34)C(=O)NC2=O)c2ccccc21 [GF109203X]
- effect of PKC inhibitor on induced insulin secretion (HIT-T15 cells; with cytopiloyne or PMA): inhibited cytopiloyne- and PMA-induced insulin secretion
- effect of PKC inhibitor on mediated insulin transcription ([3]; with cytopiloyne, glucose or PMA): completely abolished cytopiloyne-, glucose- and PMA-mediated insulin transcription

Compound: CN(C)C(=N)N=C(N)N [metformin]
- blood sugar lowering when dosed 60 min before insulin injection (STZ-treated C57BL mice [4]): significantly reduced blood glucose levels

Compound: CCCCCCCCCCCCCC(=O)O[C@@H]1[C@@H](C)[C@@]2(O)[C@@H](C=C(CO)C[C@]3(O)C(=O)C(C)=C[C@@H]23)[C@@H]2C(C)(C)[C@]12OC(C)=O [PMA, phorbol 12-myristate 13-acetate, reference compound]
- phosphorylation of PKCα (PKCα; cytopiloyne 7 μM): increased phosphorylation of PKCα
- translocation of PKCα from cytoplasm to membrane (PKCα; cytopiloyne 3, 7 and 14 μM): increased the translocation of PKCα from cytoplasm to membrane
- level of DAG (RIN-m5F cells): significantly increased the level of DAG
- insulin secretion in β-cell line (HIT-T15 cells; glucose 16.7 mM): stimulated insulin secretion
- insulin transcription in HIT-T15 cells ([3]; glucose 16.7 mM): stimulated insulin transcription
